In publication PMC9781803, “Phenotypic and Target-Directed Screening Yields New Acaricidal Alternatives for the Control of Ticks” (Molecules, 2022):

How the values were obtained:
[1] = test system: embryonic cell line BME26; test: Phenotypic screening on BME26 cell cultures (MTT viability); type: cell-based, R. microplus
Description: The embryonic cell line BME26 from R. microplus (Centro de Biotecnologia, Universidade Federal do Rio Grande do Sul, Porto Alegre, RS, Brazil) was grown as adherent monolayers in a complete medium, as described previously, which consisted of L-15B300 medium supplemented with 5% heat-inactivated Fetal Bovine Serum (FBS) (Gibco Co., Grand Island, NY), 10% Tryptose Phosphate Broth (TPB) (BD), penicillin (100 U/mL), streptomycin ([…], Gibco Co., Grand Island, NY, USA), and 0.1% bovine lipoprotein concentrate (ICN), (pH 7.2). The suspension of embryonic BME26 cells from R. microplus was seeded into 24-well plates (5 × 10^5 cells/well) to a final volume of 500 μL in a complete medium, and allowed to attach. After 24 h incubation at 34 °C, the extracts (100 µg/mL final concentration) and the compounds were added to the final concentrations indicated (1–100 µM), and 0.05% dimethylsulfoxide (DMSO) was used in the negative control wells. After 24 h of treatment, 50 μL of 3-(4,5-dimethylthiazol-2-yl)-2,5-diphenyltetrazolium bromide (MTT) prepared in serum-free medium (5 mg/mL) was added to each well. The media were discarded after 2 additional hours of incubation, and 1 mL of acid-isopropyl alcohol (0.15% HCl in isopropyl alcohol) was added to dissolve the formazan crystals. The mixture was transferred to 1.5 mL tubes, centrifuged at 6000× g for 15 min, and the clear supernatant was collected in new tubes for absorbance measurement at 570 nm using quartz cuvettes in a UVmini-1240 UV–vis spectrophotometer (Shimadzu, Japan). Absorbance values of the control treatment were used for normalization (100% viability). The activity was determined by analysis using OriginLab8.5® sigmoidal regression (% of viable cells compared to the logarithm of the compound concentration). The half-maximal inhibitory concentration (IC50), defined as the drug concentration at which 50% of the cells were viable relative to the control (no drug added), was used as a measurement of activity. These experiments were performed in triplicate for each compound.

[2] = set-up: method as in PMID 28481276; settings: in mice; cited from earlier work
R. microplus = test: Acaricidal activity on R. microplus (LIT and AIT, overall statement); type: in vivo; settings: LIT 1 mM and AIT 1.5 mM
Description: After immersion, the fully engorged females were lightly dried with absorbent paper. […] The tubes carrying the eggs were closed with hydrophilic cotton, and were returned to the incubator chamber under the same conditions until the eggs hatched. The reproductive efficacy, as well as % control of each compound on R. microplus, was calculated according to published reports. The results were verified in two independent experiments. This assay was performed based on the method of Castro-Janer et al., 2011. […] The tubes were incubated in the same conditions as described above. The larvae were ready for testing after 14 to 21 days from egg-hatching. For the test, the compounds were diluted in DMSO, and were later resuspended in distilled water, always using 15% DMSO of the final solution volume. […] For the immersion procedure, tubes containing the larvae were placed vertically, without the cotton plug, and the larvae were taken with a brush from the top of the tube, ensuring they were viable. A cluster with a diameter of 2 mm of larvae was collected with a brush, and was later immersed in each solution, as well as in both control solutions, for 10 min. After this time, the solutions were drained, and the larvae were placed in 8.5 cm × 7.5 cm Whatman No. 1 filter papers. The filters were folded in the middle of the 8.5 cm side, and closed with 3 bulldog clips, forming packets. These packets were incubated for 24 h, under the same conditions as described previously, and then the percent of mortality was determined, considering it as the % of the control.

[3] = test system: R. microplus (Mozo strain) larvae; test: Larval Immersion Test (LIT); type: in vivo; settings: compounds 1.0 mM, 10 min immersion, 24 h
Description: This assay was performed based on the method of Castro-Janer et al., 2011. Fully engorged females of R. microplus (Mozo strain) were incubated in Petri dishes at 27 °C and 85–90% relative humidity for 14 days. […] The tubes were incubated in the same conditions as described above. The larvae were ready for testing after 14 to 21 days from egg-hatching. For the test, the compounds were diluted in DMSO, and were later resuspended in distilled water, always using 15% DMSO of the final solution volume. The concentrations for the different compounds for the final immersion solution are 1 mg/mL for the extracts, and 1 mM for the compounds. […] For the immersion procedure, tubes containing the larvae were placed vertically, without the cotton plug, and the larvae were taken with a brush from the top of the tube, ensuring they were viable. A cluster with a diameter of 2 mm of larvae was collected with a brush, and was later immersed in each solution, as well as in both control solutions, for 10 min. After this time, the solutions were drained, and the larvae were placed in 8.5 cm × 7.5 cm Whatman No. 1 filter papers. The filters were folded in the middle of the 8.5 cm side, and closed with 3 bulldog clips, forming packets. These packets were incubated for 24 h, under the same conditions as described previously, and then the percent of mortality was determined, considering it as the % of the control.

[4] = test system: J774.1 murine macrophages; test: Cytotoxicity assay on murine macrophages (MTT); type: cell-based; settings: Mus musculus, J774.1, 48 h, read-out: IC50 (µM) Mammalian Cells
Description: J774.1 murine macrophages (ATCC, Rockville, MD, USA) were grown in a DMEM culture medium containing 4 mM L-glutamine, and supplemented with 10% FCS. The cells were seeded into a 96-well plate (5 × 10^4 cells in 200 µL culture medium) and incubated at 37 °C in a 5% CO2 atmosphere for 48 h, to allow cell adhesion before drug testing. Afterward, the cells were exposed for 48 h to the compounds (25–400 μM) or the vehicle (0.4% DMSO), and additional controls (cells in medium) were used in each test. Cell viability was then assessed by measuring the mitochondria-dependent reduction of MTT to formazan: for this, MTT in sterile PBS (0.2% glucose), pH 7.4, was added to the macrophages, to a final concentration of 0.1 mg/mL, and the cells were then incubated at 37 °C for 3 h. After removing the medium, the formazan crystals were dissolved in 180 μL of DMSO and 20 μL of MTT buffer (0.1 M glycine, 0.1 M NaCl, 0.5 mM EDTA, pH 10.5), and the absorbance was measured at 560 nm. The IC50 was defined as the drug concentration at which 50% of the cells were viable, relative to the control (no drug added), and was determined by analysis using OriginLab 8.5 Corporation, Northampton, MA, USA, sigmoidal regression (% of viable cells compared to the logarithm of the compound concentration). The tests were performed in triplicate in two independent experiments.

[5] = test system: fully engorged females of the Mozo susceptible strain of R. microplus; test: Adult Immersion Test (AIT); type: in vivo; settings: compounds 1.5 mM, 15 min immersion, 14 days
Description: This essay was performed based on Drummond et al., 1973, as each group of 5 fully engorged females of the Mozo susceptible strain of R. microplus was immersed in 50 mL tubes containing 10 mL of compounds at different concentrations (0.5, 1, 1.5, 2, 3.5 mM) for 15 min in four replicates. Four negative control groups were used (DMSO 10%). After immersion, the fully engorged females were lightly dried with absorbent paper. They were then placed in 100 mm disposable Petri dishes with their respective identification, and immediately incubated at 27 °C in an atmosphere with relative humidity (RH) of 85-90% for 14 days. […] The tubes carrying the eggs were closed with hydrophilic cotton, and were returned to the incubator chamber under the same conditions until the eggs hatched. The reproductive efficacy, as well as % control of each compound on R. microplus, was calculated according to published reports. The results were verified in two independent experiments.

[6] = set-up: method as in PMID 28481276; settings: experimental data; cited from earlier work

O=C(/C=C/c1cccs1)/C=C/c1cccs1 [compound 796]
IC50 ([1]; BME26 cells, 24 h, MTT, read-out: IC50): 15 ± 3 µM
inhibition at 100 µM ([1]; synthetic compounds at 100 μM, BME26, 24 h, read-out: % of Growth Inhibition): 93%
LD50 (mg/kg) [2]: >2000^+ mg/kg
acaricidal activity (in words) (R. microplus): acaricidal potential against R. microplus similar to Amitraz
% of Mortality LIT [3]: 36 ± 8%
IC50 [4]: > 50 µM
% of Mortality AIT [5]: 20 ± 1%
Mutagenicity by Ames Test [6]: Negative *
